According to PMC11995724, “Antibiotic target discovery by integrated phenotypic and activity-based profiling of electrophilic fragments” (Cell chemical biology, 2025):

Assay: in vitro
Settings: human, hek293t cells

Row | Compound | viability at 48 h, 25 µM [%]
1 | CC(Cl)C(=O)NC(C)c1nc(Cc2ccccc2)no1 (stereo not drawn) [7-B19, N-[1-(3-benzyl-1,2,4-oxadiazol-5-yl)ethyl]-2-chloropropanamide] | 79.9
2 | Cc1cc(CN(C(=O)CCl)C2CCCC2)c2ccccc2n1 [7-B20, 2-chloro-N-cyclopentyl-N-[(2-methylquinolin-4-yl)methyl]acetamide] | 0.493
3 | CC(Cl)C(=O)N(C)Cc1cc(C(C)(C)C)[nH]n1 (stereo not drawn) [7-B21, N-[(5-tert-butyl-1H-pyrazol-3-yl)methyl]-2-chloro-N-methylpropanamide] | 80.5
4 | O=C(CCl)NC(c1ccc(F)c(C(F)(F)F)c1)C1CC1 (stereo not drawn) [7-B22, 2-chloro-N-{cyclopropyl[4-fluoro-3-(trifluoromethyl)phenyl]methyl}acetamide] | 0.631
5 | CC(Cl)C(=O)NCC1CN(S(C)(=O)=O)C1 (stereo not drawn) [7-C04, 2-chloro-N-[(1-methanesulfonylazetidin-3-yl)methyl]propanamide] | 118
6 | CC(Cl)C(=O)N1CCCCCC1c1noc(-c2cnn(C)c2)n1 (stereo not drawn) [7-C05, 2-chloro-1-{2-[5-(1-methyl-1H-pyrazol-4-yl)-1,2,4-oxadiazol-3-yl]azepan-1-yl}propan-1-one] | 92.8
7 | CC(Cl)C(=O)N1CCc2ncsc2C1 (stereo not drawn) [7-C06, 2-chloro-1-{4H,5H,6H,7H-[1,3]thiazolo[5,4-c]pyridin-5-yl}propan-1-one] | 92.6
8 | CC(Cl)C(=O)N1CCC(N(CC(F)(F)F)S(C)(=O)=O)CC1 (stereo not drawn) [7-C07, N-[1-(2-chloropropanoyl)piperidin-4-yl]-N-(2,2,2-trifluoroethyl)methanesulfonamide] | 94.8
9 | CC(Cl)C(=O)N1CCOCC1c1ncnn1Cc1ccccc1 (stereo not drawn) [7-C08, 1-[3-(1-benzyl-1H-1,2,4-triazol-5-yl)morpholin-4-yl]-2-chloropropan-1-one] | 95.7
10 | CC(Cl)C(=O)N1C2C=C(c3ccccc3)CC1CC2 (stereo not drawn) [7-C09, 2-chloro-1-{3-phenyl-8-azabicyclo[3.2.1]oct-2-en-8-yl}propan-1-one] | 81.3
11 | CC(Cl)C(=O)N(C)Cc1ncnn1CC(F)F (stereo not drawn) [7-C10, 2-chloro-N-{[1-(2,2-difluoroethyl)-1H-1,2,4-triazol-5-yl]methyl}-N-methylpropanamide] | 97.8
12 | CC(Cl)C(=O)NCc1csc2ccccc12 (stereo not drawn) [7-C11, N-[(1-benzothiophen-3-yl)methyl]-2-chloropropanamide] | 81.9
13 | CC(Cl)C(=O)NCCc1c[nH]c2ncccc12 (stereo not drawn) [7-C12, 2-chloro-N-(2-{1H-pyrrolo[2,3-b]pyridin-3-yl}ethyl)propanamide] | 88.4
14 | CC(Cl)C(=O)N1CCCC(NS(=O)(=O)c2cccc(F)c2)C1 (stereo not drawn) [7-C13, N-[1-(2-chloropropanoyl)piperidin-3-yl]-3-fluorobenzene-1-sulfonamide] | 79.3
15 | COc1ccc(N(C)C(=O)C(C)Cl)cc1Cl (stereo not drawn) [7-C14, 2-chloro-N-(3-chloro-4-methoxyphenyl)-N-methylpropanamide] | 80.4
16 | CC(Cl)C(=O)N1CCCc2ccc(N(C)C)cc2C1 (stereo not drawn) [7-C15, 2-chloro-1-[8-(dimethylamino)-2,3,4,5-tetrahydro-1H-2-benzazepin-2-yl]propan-1-one] | 82.1
17 | CC(Cl)C(=O)N(C)C1CCN(c2ccccc2Cl)C1=O (stereo not drawn) [7-C16, 2-chloro-N-[1-(2-chlorophenyl)-2-oxopyrrolidin-3-yl]-N-methylpropanamide] | 77.8
18 | CC(Cl)C(=O)NC1CCN(c2ccccc2C(F)(F)F)C1 (stereo not drawn) [7-C17, 2-chloro-N-{1-[2-(trifluoromethyl)phenyl]pyrrolidin-3-yl}propanamide] | 67.5
19 | Cc1ncccc1OCC1CCCN1C(=O)C(C)Cl (stereo not drawn) [7-C18, 2-chloro-1-(2-{[(2-methylpyridin-3-yl)oxy]methyl}pyrrolidin-1-yl)propan-1-one] | 76.6
20 | CC(Cl)C(=O)NC(c1ccc(F)cc1)c1cnn(C)c1 (stereo not drawn) [7-C19, 2-chloro-N-[(4-fluorophenyl)(1-methyl-1H-pyrazol-4-yl)methyl]propanamide] | 93.1
21 | CCc1cnc(N2CCN(C(=O)C(C)Cl)CC2)s1 (stereo not drawn) [7-C20, 2-chloro-1-[4-(5-ethyl-1,3-thiazol-2-yl)piperazin-1-yl]propan-1-one] | 79.5
22 | CC(Cl)C(=O)NC1CCCN(c2ncccn2)C1 (stereo not drawn) [7-C21, 2-chloro-N-[1-(pyrimidin-2-yl)piperidin-3-yl]propanamide] | 93.1
23 | CC(Cl)C(=O)N1CCN(CC(F)(F)F)CC1C(C)C (stereo not drawn) [7-C22, 2-chloro-1-[2-(propan-2-yl)-4-(2,2,2-trifluoroethyl)piperazin-1-yl]propan-1-one] | 91.5
24 | CCC(NC(=O)CCl)c1c(C)noc1C (stereo not drawn) [7-D03, 2-chloro-N-[1-(3,5-dimethyl-1,2-oxazol-4-yl)propyl]acetamide] | 104
25 | CN1C(=O)[C@H](NC(=O)CCl)COc2ccccc21 [7-D04, 2-chloro-N-[(3R)-5-methyl-4-oxo-2,3,4,5-tetrahydro-1,5-benzoxazepin-3-yl]acetamide] | 2.02
26 | O=C(CCl)NCc1cn[nH]c1C(F)F [7-D05, 2-chloro-N-{[5-(difluoromethyl)-1H-pyrazol-4-yl]methyl}acetamide] | 0.404

Row | Compound | viability at 48 h, 25 µM [%]
27 | N#Cc1cccc2c1CC[C@H]2NC(=O)CCl [7-D06, 2-chloro-N-[(1R)-4-cyano-2,3-dihydro-1H-inden-1-yl]acetamide] | 0.673
28 | CC(Cl)C(=O)NC1CCN(Cc2cscn2)CC1 (stereo not drawn) [7-D07, 2-chloro-N-{1-[(1,3-thiazol-4-yl)methyl]piperidin-4-yl}propanamide] | 111
29 | CCC(NC(=O)CCl)c1cccc(OC)n1 (stereo not drawn) [7-D08, 2-chloro-N-[1-(6-methoxypyridin-2-yl)propyl]acetamide] | 1.69
30 | CC(Cl)C(=O)NCCc1nnc2n1CCCCC2 (stereo not drawn) [7-D09, 2-chloro-N-(2-{5H,6H,7H,8H,9H-[1,2,4]triazolo[4,3-a]azepin-3-yl}ethyl)propanamide] | 101
31 | COC1(OC)CCOCC1NC(=O)CCl (stereo not drawn) [7-D10, 2-chloro-N-(4,4-dimethoxyoxan-3-yl)acetamide] | 19.1
32 | Cc1nnc(C(C)NC(=O)C(C)Cl)s1 (stereo not drawn) [7-D11, 2-chloro-N-[1-(5-methyl-1,3,4-thiadiazol-2-yl)ethyl]propanamide] | 104
33 | O=C(CCl)N[C@H]1C[C@H](c2ccccc2)C1 [7-D12, 2-chloro-N-[(1r,3r)-3-phenylcyclobutyl]acetamide] | 0.742
34 | CC(Cl)C(=O)N1CCN(c2oc(-c3ccco3)nc2C#N)CC1 (stereo not drawn) [7-D13, 5-[4-(2-chloropropanoyl)piperazin-1-yl]-2-(furan-2-yl)-1,3-oxazole-4-carbonitrile] | 85
35 | CSc1ccccc1CC(C)NC(=O)CCl (stereo not drawn) [7-D14, 2-chloro-N-{1-[2-(methylsulfanyl)phenyl]propan-2-yl}acetamide] | 1.59
36 | CC(Cl)C(=O)N1CCCCC1c1nc(-c2ncccn2)no1 (stereo not drawn) [7-D15, 2-chloro-1-{2-[3-(pyrimidin-2-yl)-1,2,4-oxadiazol-5-yl]piperidin-1-yl}propan-1-one] | 85.8
37 | O=C(CCl)NC(c1ccc(F)c(Cl)c1)C(F)(F)F (stereo not drawn) [7-D16, 2-chloro-N-[1-(3-chloro-4-fluorophenyl)-2,2,2-trifluoroethyl]acetamide] | 0.544
38 | CC(Cl)C(=O)N1CCn2c(cc3c(Cl)cccc32)C1 (stereo not drawn) [7-D17, 2-chloro-1-{9-chloro-1H,2H,3H,4H-pyrazino[1,2-a]indol-2-yl}propan-1-one] | 55.6
39 | O=C(CN(CC1CCCO1)C(=O)CCl)N1CCCC1 (stereo not drawn) [7-D18, 2-chloro-N-[2-oxo-2-(pyrrolidin-1-yl)ethyl]-N-[(oxolan-2-yl)methyl]acetamide] | 99.8
40 | Cc1cc(C2CCCN2C(=O)C(C)Cl)no1 (stereo not drawn) [7-D19, 2-chloro-1-[2-(5-methyl-1,2-oxazol-3-yl)pyrrolidin-1-yl]propan-1-one] | 88.5
41 | CC(NC(=O)CCl)C(c1ccccc1Cl)n1cccn1 (stereo not drawn) [7-D20, 2-chloro-N-[1-(2-chlorophenyl)-1-(1H-pyrazol-1-yl)propan-2-yl]acetamide] | 1.01
42 | CC(Cl)C(=O)NCc1ccc2cnn(C)c2c1 (stereo not drawn) [7-D21, 2-chloro-N-[(1-methyl-1H-indazol-6-yl)methyl]propanamide] | 87.7
43 | O=C(CCl)NCc1ccc(Cl)c(C(F)(F)F)c1 [7-D22, 2-chloro-N-{[4-chloro-3-(trifluoromethyl)phenyl]methyl}acetamide] | 0.676
44 | CC(Cl)C(=O)NCCc1nnc(C(C)C)s1 (stereo not drawn) [7-E03, 2-chloro-N-{2-[5-(propan-2-yl)-1,3,4-thiadiazol-2-yl]ethyl}propanamide] | 123
45 | COc1ccc2c(c1)OCCN(C(=O)C(C)Cl)C2 (stereo not drawn) [7-E04, 2-chloro-1-(8-methoxy-2,3,4,5-tetrahydro-1,4-benzoxazepin-4-yl)propan-1-one] | 122
46 | CC(Cl)C(=O)N(Cc1nc(C2CCCCCC2)no1)C1CC1 (stereo not drawn) [7-E05, 2-chloro-N-[(3-cycloheptyl-1,2,4-oxadiazol-5-yl)methyl]-N-cyclopropylpropanamide] | 78.1
47 | CC(Cl)C(=O)NC1CCc2ccccc2-n2ccnc21 (stereo not drawn) [7-E06, 2-chloro-N-{2,5-diazatricyclo[8.4.0.0,2,6]tetradeca-1(14),3,5,10,12-pentaen-7-yl}propanamide] | 88.2
48 | CC(Cl)C(=O)N1CCN(C(=O)c2ccc3ccccc3c2)CC1 (stereo not drawn) [7-E07, 2-chloro-1-[4-(naphthalene-2-carbonyl)piperazin-1-yl]propan-1-one] | 96.2
49 | COc1ccc2ccccc2c1-c1cc(CNC(=O)C(C)Cl)on1 (stereo not drawn) [7-E08, 2-chloro-N-{[3-(2-methoxynaphthalen-1-yl)-1,2-oxazol-5-yl]methyl}propanamide] | 87.9
50 | Cc1csc(CN(CC2CCCO2)C(=O)C(C)Cl)n1 (stereo not drawn) [7-E09, 2-chloro-N-[(4-methyl-1,3-thiazol-2-yl)methyl]-N-[(oxolan-2-yl)methyl]propanamide] | 94.1
51 | Cc1noc(C23CC(CN2C(=O)C(C)Cl)C3)n1 (stereo not drawn) [7-E10, 2-chloro-1-[1-(3-methyl-1,2,4-oxadiazol-5-yl)-2-azabicyclo[2.1.1]hexan-2-yl]propan-1-one] | 93.2
